Assay in all cases: inhibition of tumour cell growth, NCI panel, 48 h
Assay [1] concerns SR leukemia.
Assay [2] deals with SNB-75 CNS.
The subject of assay [3] is NCI-H226 lung.
Assay [4] deals with RPMI-8226 leukemia.
The test system of assay [5] is ACHN renal.
Assay [6] has as its system HOP-92 NSCLC.
Assay [7] has as its system MALME-3M melanoma.
Assay [8] deals with OVCAR-8 ovarian.
Assay [9] deals with SK-OV-3 ovarian.
The test system of assay [10] is EKVX NSCLC.

From PubChem BioAssay (NCI) come the findings set out here.

Where “and” joins values, the source holds several entries; their conditions need not be identical. Equal values may be shown once.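 Results reflect a 48-hour exposure of cells in 96-well plates to compound at five concentrations. GI50 marks 50% less growth. TGI: total growth inhibition.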

Take `CCOc1ccccc1N=Nc1c(C)[nH]n(-c2nc(-c3ccccc3)cs2)c1=O`: the GI50 in assay [1] is above 100000 nM; in assay [2] it was 14.3 µM; in assay [3], 32.5 µM; in assay [4], above 100000 nM; in [5], 42300 nM; in assay [6] it was 21900 nM. For the same compound, the GI50 in assay [7] is 60900 nM; in assay [8], 29 µM; in [9], 38.9 µM; in [10], 32.6 µM. In addition, the TGI in assay [1] was above 100 µM; in [2], 48.3 µM; in assay [3] it was above 100 µM; in [4], above 100 µM; in assay [5], above 100 µM; in assay [6], above 96.8 µM. The TGI in [7], in [8], in assay [9] and in [10] was above 100 µM throughout.

For the compound `CC(C)(O)CC(=O)NCCn1ccc2ncnc(Nc3ccc(Oc4cccc(C(F)(F)F)c4)c(Cl)c3)c21`, the GI50 in assay [1] was 2140 nM; in assay [2], 4.72 µM; in [3], 3.19 µM; in [4], 4680 nM; in assay [5], 1150 nM; in [6], 1630 nM. The results for the GI50 in [8], in assay [9] and in [10] were 3.65 µM, 0.284 µM and 0.415 µM, respectively. In addition, the TGI in [1], in assay [2], in [3], in [4], in [5] and in [6] was above 10 µM each time. Further, the TGI in assay [7], in assay [8], in assay [9] and in assay [10] was above 10 µM throughout.

`C/C=C(\C)C(=O)O[C@H]1C=CC(=O)O[C@@H]1CC[C@H](O)[C@H](C)O`: the GI50 in assay [1] is 4700 nM; in [2], 33.3 µM; in assay [3], 47.4 µM; in assay [4] it was 22800 nM; in assay [5], 33400 nM; in [6], 35000 nM. Also, the GI50 was 29300 nM in assay [7], 52.5 µM in assay [8], above 100 µM in [9] and 73.9 µM in assay [10]. Also, the TGI in [1] is 42.8 µM; in assay [2], 78.9 µM; in assay [3], above 100 µM; in assay [4] it was 58.7 µM; in [5], above 92.8 µM; in assay [6], above 87.5 µM. The TGI in [7] is 70.6 µM; in assay [8], above 100 µM; in assay [9], above 100 µM; in [10], above 100 µM.

Take `O=C(c1ccccc1)c1cccc(C(=O)c2ccccc2)c1`: the TGI in assay [1], in [2], in assay [3], in assay [4], in [5] and in [6] was above 100 µM each time. Moreover, the TGI in assay [7], in assay [8], in [9] and in [10] was above 100 µM throughout.

Take `Cc1ccc(N2C(=O)C3C=CC(n4[nH]c(=O)n(Cc5ccccc5)c4=O)CC3C2=O)cc1` (centres undefined): the TGI in assay [1], in assay [2], in [3], in assay [4], in assay [5] and in assay [6] was above 100 µM in each case. In addition, the TGI in assay [7], in assay [8], in assay [9] and in [10] was above 100 µM throughout.

For `COC(=O)c1cc2ccc(OC(C)=O)c(OC(C)=O)c2cn1`, the TGI in assay [1] came out at 6.98 µM; in [2], 42 µM; in [3], 41.7 µM; in assay [4] it was 4.91 µM; in assay [5], 31.5 µM; in assay [6] it was 32.4 µM. Also, the TGI came out at 24 µM in assay [7], 22.2 µM in [8], 52.4 µM in assay [9] and 38.1 µM in assay [10]. The figures for the GI50 in [7] and in assay [8] were 11500 nM and 10.1 µM, respectively.

Take `CN(C)c1ccc2nc3ccc(=[N+](C)C)cc-3sc2c1`: the GI50 in assay [1] is 1030 nM and 1450 nM; in [2], 1.79 µM and 2.92 µM; in [3], 1.82 µM and 12.7 µM; in [4] it was 214 nM and 1230 nM; in [5] it was 2650 nM and 3040 nM; in assay [6], 2590 nM and 1740 nM. Besides, the GI50 in assay [7] was 422 nM and 848 nM; in assay [8], 0.261 µM and 0.39 µM; in [9], 2.63 µM and 5.11 µM; in assay [10], 4.24 µM and 0.804 µM. The TGI in [1] is 57.7 µM and 46.2 µM; in [2], 10.1 µM and 17.3 µM; in [3], 16.6 µM and 36.6 µM; in assay [4], 26 µM and 39.6 µM; in assay [5], 15.3 µM and 24.1 µM; in [6] it was 24.8 µM and 11.1 µM. Besides, the TGI in assay [7] was 1.77 µM and 3.57 µM; in assay [9], 12.6 µM and 25.9 µM; in assay [10] it was 28.3 µM and 29.4 µM.

With `Cc1cccc(C(C)C)c1NC(=O)CC1C(=O)Nc2ccccc2S1(=O)=O` (centres undefined), the TGI was 4.32 µM in assay [1]; above 69 µM in assay [2]; 49.9 µM in assay [3]; 23 µM in [4]; above 58.2 µM in [5]; 30.7 µM in assay [6]. Besides, the TGI in assay [7] is 50.9 µM; in [8], above 59 µM; in assay [9], above 100 µM; in assay [10] it was above 53.8 µM.

For the compound `CC[C@H](CO)Nc1nc(NCc2ccccc2)n2ncc(C(C)C)c2n1`, the GI50 is 249 nM in [1]; 1.31 µM in assay [2]; 1.84 µM in assay [3]; 2230 nM in [4]; 808 nM in [5]; 1670 nM in assay [6]. In addition, the GI50 in assay [7] is 2600 nM; in assay [8], 2.15 µM; in assay [9], 5.55 µM; in [10] it was 2.41 µM. Moreover, the TGI in assay [1] came out at 1.59 µM; in assay [2] it was 3.33 µM; in [3], 10.1 µM; in assay [4] it was 6.93 µM; in assay [5], 10.7 µM; in assay [6], 7.1 µM. Besides, the TGI in assay [7] worked out at 6.99 µM; in assay [8] it was 54.8 µM; in [9], 40.2 µM; in [10], 9.13 µM.

As to `O=C(/C=C/c1ccc([N+](=O)[O-])cc1)c1ccc2c3c(cccc13)CC2`, the GI50 in [1] was 2020 nM; in assay [2], 4.95 µM; in assay [3], above 37.2 µM; in assay [4], 1640 nM; in [5], 47900 nM; in assay [6], 2430 nM. Also, the GI50 in assay [7] was above 64200 nM; in assay [8], 22.2 µM; in assay [9], 33.1 µM; in [10], 62.9 µM. Also, the TGI in assay [1] is 24.9 µM; in assay [2], 23.8 µM; in [3] it was above 100 µM; in assay [4], 4.84 µM; in assay [5], above 100 µM; in [6] it was 15.4 µM. Also, the TGI in assay [7] was above 100 µM; in assay [8], above 100 µM; in assay [9], above 91.3 µM; in [10], above 100 µM.

For `Cc1c2c(nn1C)CSCc1cc(n(C)n1)CSc1cc(c3ccccc3c1)OCCCc1c(C(=O)O)n(C)c3c-2c(Cl)ccc13`, the GI50 in [1] is 470 nM; in assay [2], 4.35 µM; in assay [3], 4.4 µM; in assay [4], 40.1 nM; in assay [5], 4100 nM; in assay [6] it was 2460 nM. Also, the GI50 is 2840 nM in assay [7], 4.62 µM in [8], 10.6 µM in assay [9] and 3.86 µM in assay [10]. For the same compound, the TGI in assay [1] was found to be 7.25 µM; in [2], 18 µM; in [3], 23.2 µM; in [4] it was 1.33 µM; in assay [5], 14 µM; in assay [6], 10.2 µM. Further, the TGI in assay [7] stood at 9.87 µM; in [8], 18.9 µM; in assay [9], 22.7 µM; in assay [10], 15.7 µM.

Consider `CS[C@]12C(=O)C[C@@]3(C)[C@@H](CC[C@]3(O)C(=O)CO)[C@@H]1CCC1=CC(=O)CC[C@@]12C`, for which the TGI in assay [1], in assay [2], in assay [3], in assay [4], in assay [5] and in assay [6] was above 100 µM throughout. Further, the TGI in [7], in assay [8], in [9] and in [10] was above 100 µM each time.

`O=CC1CCCc2ccccc21` (centres undefined): the TGI is above 100 µM in [1]; above 100 µM in assay [2]; above 100 µM in assay [3]; above 65.8 µM in assay [4]; above 100 µM in assay [5]; above 100 µM in assay [6]. In addition, the TGI in assay [7], in assay [8], in assay [9] and in assay [10] was above 100 µM in each case.

`CCCCN(CCCC)c1ccc(C(=N)c2ccc(N(CCCC)CCCC)cc2)cc1`: the GI50 in assay [1] is 287 nM; in assay [2] it was 0.746 µM; in assay [3], 0.593 µM; in assay [4], 396 nM; in [5], 402 nM; in [6] it was 235 nM. For the same compound, the GI50 in assay [7] is 508 nM; in assay [8] it was 0.396 µM; in assay [9], 1.19 µM; in assay [10], 0.277 µM. Further, the TGI stood at 1.04 µM in [1]; 2.14 µM in assay [2]; 1.97 µM in assay [3]; 1.88 µM in assay [4]; 1.48 µM in assay [5]; 1.46 µM in assay [6]. Moreover, the TGI is 2.12 µM in [7], 1.37 µM in [8], 2.47 µM in assay [9] and 1.15 µM in assay [10].

Turning to `C=C1C(=O)OC2C1C(OC(=O)/C(C)=C/C)CC(O)(CCl)C1C(O)C3OC3(C)C21O` (centres undefined), the TGI in assay [1], in [2], in assay [3], in [4], in assay [5] and in [6] was above 50 µM each time. The TGI in assay [7] is 10.6 µM; in [8] it was 42.5 µM; in [9], above 50 µM; in assay [10] it was above 50 µM.

Turning to `[N-]=[N+]=NC(CI)c1cn([C@H]2C[C@H](O)[C@@H](CO)O2)c(=O)[nH]c1=O` (some centres undefined), the TGI in assay [1], in assay [2], in assay [3], in assay [4], in assay [5] and in [6] was above 100 µM in each case. Also, the TGI in [7], in assay [8], in assay [9] and in assay [10] was above 100 µM each time.

With `COc1ccc(C(=O)c2cc3c(N)c(C(=O)Nc4cccc5ccccc45)sc3nc2C)cc1`, the GI50 is 161 nM in assay [1]; 0.137 µM in assay [2]; 0.332 µM in assay [3]; 184 nM in assay [4]; 364 nM in assay [5]; 181 nM in assay [6]. Besides, the GI50 in assay [7] was 378 nM; in assay [8], 0.285 µM; in assay [9] it was 0.429 µM; in assay [10], 0.294 µM. In addition, the TGI was above 50 µM in assay [1]; above 50 µM in assay [2]; above 50 µM in [3]; above 50 µM in [5]; above 13.5 µM in assay [6]; above 50 µM in assay [7]. Besides, the TGI in [8], in [9] and in assay [10] was above 50 µM throughout.

For `COC(=O)C1=C(c2cc(OC)c(OC)c(OC)c2)OC(c2ccc(OC)c(OC)c2)C1` (centres undefined), the TGI in [1], in [2], in [3], in assay [4], in assay [5] and in [6] was above 100 µM each time. In addition, the TGI in assay [7], in assay [8], in assay [9] and in [10] was above 100 µM in each case.
